The term pIC50 denotes −log10 of the IC50, conventionally taken in molar units.

We go through 32 compounds from patent US7482360B2, “Fused tetracyclic mGluR1 antagonists as therapeutic agents” (Schering Corporation, priority 2005, dated 2009).

In the experiment the target is T1, hmGluR1 receptor (Homo sapiens, UniProt Q13255).
T1 construct: expressed in transfected cells; host or cells: CHO
Put plainly: IC50 Determination: intracellular calcium mobilization (FLIPR) in a CHO cell line stably expressing hmGluR1 receptor, against Quisqualate. In kind it is cell-based. The settings on record: CHO cells expressing hmGluR1, against Quisqualate 1 μM (EC80), compounds added 10 minutes before agonist. The method, then: A CHO cell line stably expressing hmGluR1 receptor was established. One day prior to assay, cells were split in growth media at concentration of 50,000 cells/well in a volume of 100 μl and seeded into black clear-bottom 96-well plates. After two to six hours, when cells were well attached to the plate, growth medium was replaced with assay medium (100 μL) consisting of DMEM high glucose, supplemented with GPT (1 U/mL) and sodium pyruvate, 1 mM. Following overnight incubation, medium was discarded and cells were loaded for 2 hours with dye from the Calcium 3 Assay Reagent Kit (Molecular Devices, # R8033), prepared according to manufacturers' instructions. A 96-tip pipettor/fluorometric imaging plate reader (FLIPR 384; Molecular Devices) was used and intracellular calcium mobilization was measured by increases in fluorescence upon agonist Quisqualate stimulation following 6 sec-baseline measurement. Test compounds were added 10 minutes before Quisqualate. IC50 determinations for tested compounds were generated against Quisqualate 1 μM corresponding to EC80 value in a standard dose response curve.
A general note: Calcium flux is commonly read through the fluorescence of an indicator in the cells.

pIC50: −log10 of the molar value. Read-outs that look alike come from different tables or passages of the source.

T1 sequence (Q13255 19-1194): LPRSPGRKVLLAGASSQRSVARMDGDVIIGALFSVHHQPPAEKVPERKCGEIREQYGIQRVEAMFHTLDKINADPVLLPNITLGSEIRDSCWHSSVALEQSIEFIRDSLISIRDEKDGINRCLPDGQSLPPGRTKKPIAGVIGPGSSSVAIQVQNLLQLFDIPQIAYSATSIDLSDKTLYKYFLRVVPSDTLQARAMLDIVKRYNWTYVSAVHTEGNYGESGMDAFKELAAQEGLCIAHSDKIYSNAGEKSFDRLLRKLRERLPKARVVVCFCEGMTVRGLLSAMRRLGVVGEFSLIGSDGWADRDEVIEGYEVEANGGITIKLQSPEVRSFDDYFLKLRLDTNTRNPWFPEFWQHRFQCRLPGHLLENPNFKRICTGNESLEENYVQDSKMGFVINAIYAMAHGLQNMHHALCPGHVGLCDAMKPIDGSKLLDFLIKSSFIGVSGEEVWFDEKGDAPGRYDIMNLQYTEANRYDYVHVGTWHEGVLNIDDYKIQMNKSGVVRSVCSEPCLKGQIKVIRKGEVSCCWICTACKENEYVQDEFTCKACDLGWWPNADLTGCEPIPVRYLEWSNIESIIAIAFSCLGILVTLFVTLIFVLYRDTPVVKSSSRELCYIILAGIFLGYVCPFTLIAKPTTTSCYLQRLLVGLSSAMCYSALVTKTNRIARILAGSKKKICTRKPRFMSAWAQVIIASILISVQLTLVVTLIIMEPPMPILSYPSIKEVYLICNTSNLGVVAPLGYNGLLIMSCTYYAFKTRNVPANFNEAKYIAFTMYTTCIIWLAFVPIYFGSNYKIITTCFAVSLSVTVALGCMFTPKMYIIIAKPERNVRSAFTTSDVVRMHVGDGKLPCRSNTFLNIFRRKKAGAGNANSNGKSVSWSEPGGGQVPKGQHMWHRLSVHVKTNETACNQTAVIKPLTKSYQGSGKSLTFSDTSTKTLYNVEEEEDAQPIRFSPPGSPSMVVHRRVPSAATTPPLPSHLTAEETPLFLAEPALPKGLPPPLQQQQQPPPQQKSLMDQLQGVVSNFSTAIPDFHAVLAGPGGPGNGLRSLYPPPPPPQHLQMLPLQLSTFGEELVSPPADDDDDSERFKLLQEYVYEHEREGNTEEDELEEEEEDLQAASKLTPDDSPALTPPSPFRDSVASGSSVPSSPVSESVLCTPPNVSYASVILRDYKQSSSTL

Turning to `Cn1ncc2cnc3sc4c(=O)n(C5CCCCC5)cnc4c3c21` [Compound 4], the negative logarithm of the IC50 (pIC50) (read-out: mGluR1 IC50 rating) is 6.00 to 7.00. The same measure, in the same setting: next, `Cn1ccc2cnc3sc4c(=O)n(C5CCCCC5)cnc4c3c21` [Compound 6]: 7.00 to 7.70. Same read-out and setting: the result for `Cn1cnc2cnc3sc4c(=O)n(C5CCCCC5)cnc4c3c21` [Compound 9] reads 7.00 to 7.70. Take `O=c1c2sc3ncc4nc[nH]c4c3c2ncn1C1CCCCC1` [Compound 12]: the negative-log IC50 (pIC50) reads like this: (read-out: mGluR1 IC50) 7.64; (read-out: mGluR1 IC50 rating) 7.00 to 7.70. As for `O=c1c2sc3ncc4nn[nH]c4c3c2ncn1C1CCCCC1` [Compound 13], the negative logarithm of the IC50 (pIC50) (read-out: mGluR1 IC50 rating) is 6.00 to 7.00. For the compound `O=c1c2sc3ncc4cn[nH]c4c3c2ncn1-c1ccc(Cl)cc1` [Compound 20a], the pIC50 was 7.42 (read-out: mGluR1 IC50) and 7.00 to 7.70 (read-out: mGluR1 IC50 rating). On the same counts, the results for `Cc1ccc(-n2cnc3c(sc4ncc5cn[nH]c5c43)c2=O)cc1` [Compound 20b] are 7.77 and more than 7.70. As for `Cc1ccc(-n2cnc3c(sc4ncc5c(c43)OCC5)c2=O)cc1` [Compound 24], the pIC50 (read-out: mGluR1 IC50 rating) is 6.00 to 7.00.

In the case of `Cc1ccc(-n2cnc3c(sc4ncc5cc[nH]c5c43)c2=O)cc1` [Compound 27a], the negative logarithm of the IC50 (pIC50) was 9.15 (read-out: mGluR1 IC50) and more than 7.70 (read-out: mGluR1 IC50 rating). In the case of `COc1ccc(-n2cnc3c(sc4ncc5cc[nH]c5c43)c2=O)cc1` [Compound 27b], the pIC50 runs as follows: (read-out: mGluR1 IC50) 8.31; (read-out: mGluR1 IC50 rating) more than 7.70.

In the case of `Cc1ccc(-n2cnc3c(sc4ncc5sc(=S)[nH]c5c43)c2=O)cc1` [Compound 28], the negative-log IC50 (pIC50) (read-out: mGluR1 IC50 rating) is 6.00 to 7.00.

`CSc1nc2c(cnc3sc4c(=O)n(-c5ccc(C)cc5)cnc4c32)s1` [Compound 29]: the pIC50 (read-out: mGluR1 IC50 rating) is 6.00 to 7.00. Take `Cc1ccc(-n2cnc3c(sc4ncc5sc(=O)[nH]c5c43)c2=O)cc1` [Compound 30]: the pIC50 (read-out: mGluR1 IC50 rating) is 6.00 to 7.00.

Turning to `Cc1ccc(-n2cnc3c(sc4ncc5ccn(C)c5c43)c2=O)cc1` [Compound 31], under “read-out: mGluR1 IC50 rating”, the negative-log IC50 (pIC50) is 7.00 to 7.70. Take `O=c1c2sc3ncc4cc[nH]c4c3c2ncn1-c1ccc(Cl)cc1` [Compound 34]: the negative logarithm of the IC50 (pIC50) runs as follows: (read-out: mGluR1 IC50) 9.40; (read-out: mGluR1 IC50 rating) more than 7.70.

With `O=c1c2sc3ncc4nc[nH]c4c3c2ncn1-c1ccc(Cl)cc1` [Compound 35], the pIC50 is 8.22 (read-out: mGluR1 IC50) and more than 7.70 (read-out: mGluR1 IC50 rating).

For the compound `Cn1cnc2cnc3sc4c(=O)n(-c5ccc(Cl)cc5)cnc4c3c21` [Compound 36], the pIC50 runs as follows: (read-out: mGluR1 IC50) 8.01; (read-out: mGluR1 IC50 rating) more than 7.70.

`O=c1c2sc3ncc(Br)c(NCCO)c3c2ncn1-c1ccc(Cl)cc1` [Compound 37a]: the negative logarithm of the IC50 (pIC50) (read-out: mGluR1 IC50) was 7.85 and the negative logarithm of the IC50 (pIC50) (read-out: mGluR1 IC50 rating) was more than 7.70. `C[C@@H](O)CNc1c(Br)cnc2sc3c(=O)n(-c4ccc(Cl)cc4)cnc3c12` [Compound 37b]: the pIC50 (read-out: mGluR1 IC50 rating) is less than 6.00.

`C[C@H](O)CNc1c(Br)cnc2sc3c(=O)n(-c4ccc(Cl)cc4)cnc3c12` [Compound 37c]: where the note is “read-out: mGluR1 IC50 rating”, the pIC50 was less than 6.00. On the same count and under the same terms, next, `C[C@H](CO)Nc1c(Br)cnc2sc3c(=O)n(-c4ccc(Cl)cc4)cnc3c12` [Compound 37d]: less than 6.00; `C[C@@H](CO)Nc1c(Br)cnc2sc3c(=O)n(-c4ccc(Cl)cc4)cnc3c12` [Compound 37e]: less than 6.00. The same measure, in the same setting: the result for `Cc1ccc(-n2cnc3c(sc4ncc(Br)c(N(C)CCO)c43)c2=O)cc1` [Compound 37f] reads 6.00 to 7.00. Regarding `O=c1c2sc3ncc4c(c3c2ncn1-c1ccc(Cl)cc1)NCCO4` [Compound 38a], the negative-log IC50 (pIC50) is, setting by setting: (read-out: mGluR1 IC50) 8.54; (read-out: mGluR1 IC50 rating) more than 7.70. On the same counts, the results for `C[C@@H]1CNc2c(cnc3sc4c(=O)n(-c5ccc(Cl)cc5)cnc4c23)O1` [Compound 38b] are 8.85 and more than 7.70. For `C[C@H]1CNc2c(cnc3sc4c(=O)n(-c5ccc(Cl)cc5)cnc4c23)O1` [Compound 38c], in that order: 8.66 and more than 7.70. In the case of `C[C@@H]1COc2cnc3sc4c(=O)n(-c5ccc(Cl)cc5)cnc4c3c2N1` [Compound 38d], the pIC50 (read-out: mGluR1 IC50 rating) was 7.00 to 7.70. Take `C[C@H]1COc2cnc3sc4c(=O)n(-c5ccc(Cl)cc5)cnc4c3c2N1` [Compound 38e]: the pIC50 runs as follows: (read-out: mGluR1 IC50) 7.92; (read-out: mGluR1 IC50 rating) more than 7.70. `Cc1ccc(-n2cnc3c(sc4ncc5c(c43)N(C)CCO5)c2=O)cc1` [Compound 38f]: the pIC50 runs as follows: (read-out: mGluR1 IC50) 8.24; (read-out: mGluR1 IC50 rating) more than 7.70. On the same counts, the results for `Cc1ccc(-n2cnc3c(sc4ncc5c(c43)NC[C@@H](C)O5)c2=O)cc1` [Compound 38g] are 8.28 and more than 7.70. On the same counts, the results for `Cc1ccc(-n2cnc3c(sc4ncc5c(c43)NCCO5)c2=O)cc1` [Compound 38h] are 8.66 and more than 7.70. In the case of `COc1ccc(-n2cnc3c(sc4ncc5c(c43)NCCO5)c2=O)cc1` [Compound 38i], the pIC50 by setting is: (read-out: mGluR1 IC50) 8.60; (read-out: mGluR1 IC50 rating) more than 7.70.
